# According to patent US6559305B1, “Linezolid—crystal form II” (Pharmacia & Upjohn Company, priority 2000, dated 2003):
# Experiment: relative stability of linezolid crystal forms
# Format: physicochemical
# Conditions: temperature below about 85° (degrees Centigrade)
smiles,measurement,value
"CC(=O)NC[C@H]1CN(c2ccc(N3CCOCC3)c(F)c2)C(=O)O1 [Crystal Form II, (S)-N-[[3-[3-fluoro-4-(4-morpholinyl)phenyl]-2-oxo-5-oxazolidinyl]methyl]acetamide]",stability of the crystal form relative to other solid forms (e.g. Form I),most stable form below about 85°
